Reference: PubChem BioAssay (NCI)
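48-hour exposure; five concentrations; linearly interpolated endpoints. Abbreviation: GI50, concentration required for 50% inhibition of growth. At the TGI there is no net growth.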

Legend:
Assay in all cases: DTP human tumour cell line panel, 48 h
[1] = test system: HL-60(TB) leukemia
[2] = test system: T-47D breast
[3] = test system: OVCAR-4 ovarian
[4] = test system: NCI-H460 lung
[5] = test system: HT29 colon
[6] = test system: MCF7 breast
[7] = test system: MOLT-4 leukemia
[8] = test system: SNB-19 CNS
[9] = test system: RPMI-8226 leukemia
[10] = test system: SN12C renal
[11] = test system: CAKI-1 renal
[12] = test system: UACC-257 melanoma
[13] = test system: COLO 205 colon
[14] = test system: ACHN renal
[15] = test system: DU-145 prostate
[16] = test system: A498 renal
[17] = test system: NCI/ADR-RES ovarian
[18] = test system: 786-0 renal
[19] = test system: UACC-62 melanoma
[20] = test system: SK-MEL-2 melanoma
[21] = test system: NCI-H23 lung
[22] = test system: HOP-92 NSCLC
[23] = test system: MDA-MB-435
[24] = test system: K-562 leukemia
[25] = test system: MDA-MB-231 breast
[26] = test system: OVCAR-3 ovarian
[27] = test system: A549 NSCLC
[28] = test system: SF-539 CNS
[29] = test system: UO-31 renal
[30] = test system: SR leukemia
[31] = test system: OVCAR-5 ovarian
[32] = test system: SK-MEL-5 melanoma
[33] = test system: MALME-3M melanoma
[34] = test system: IGROV1 ovarian
[35] = test system: U251 CNS
[36] = test system: SNB-75 CNS
[37] = test system: M14 melanoma
[38] = test system: SW-620 colon
[39] = test system: HS 578T breast
[40] = test system: HOP-62 NSCLC
[41] = test system: OVCAR-8 ovarian
[42] = test system: LOX IMVI melanoma
[43] = test system: RXF 393 renal
[44] = test system: BT-549 breast
[45] = test system: HCT-15 colon
[46] = test system: HCT-116 colon
[47] = test system: SK-OV-3 ovarian
[48] = test system: HCC-2998 colon
[49] = test system: TK-10 renal
[50] = test system: NCI-H226 lung
[51] = test system: SF-295 CNS
[52] = test system: PC-3 prostate
[53] = test system: NCI-H522 lung
[54] = test system: SF-268 CNS
[55] = test system: KM12 colon
[56] = test system: SK-MEL-28 melanoma
[57] = test system: CCRF-CEM leukemia

Work on `O=C1C=CC(=O)N1C1CCCCCCCCCCC1` yielded a GI50 [1] of 5.25 µM, a TGI [1] of 15.9 µM and a GI50 [2] of 3.08 µM. The TGI [2] was 11.3 µM, the GI50 [3] was 11.5 µM and the TGI [3] was 24.2 µM. The GI50 [4] was 81.1 µM, the TGI [4] was over 100 µM and the GI50 [5] was 7.86 µM. For the same compound, the TGI [5] was 26.4 µM, the GI50 [6] was 3.58 µM and the TGI [6] was 16.3 µM. It also gave a GI50 [7] of 3.28 µM, a TGI [7] of 20.1 µM and a GI50 [8] of over 84.6 µM. For the same compound, the TGI [8] was over 100 µM, the GI50 [9] was 4.91 µM and the TGI [9] was 34 µM. It also gave a GI50 [10] of 15.6 µM, a TGI [10] of 33 µM and a GI50 [11] of 5.95 µM. The TGI [11] was 16.3 µM, the GI50 [12] was 13 µM and the TGI [12] was 27.2 µM. The GI50 [13] was 2.78 µM, the TGI [13] was 8.16 µM and the GI50 [14] was 2.73 µM. For the same compound, the TGI [14] was 7.69 µM, the GI50 [15] was 13.9 µM and the TGI [15] was 27.2 µM. For the same compound, the GI50 [16] was 16.5 µM, the TGI [16] was over 93.7 µM and the GI50 [17] was 30.6 µM. It also gave a TGI [17] of over 100 µM, a GI50 [18] of 16.1 µM and a TGI [18] of 29.7 µM. The GI50 [19] was 14.7 µM, the TGI [19] was 28.5 µM and the GI50 [20] was 16.4 µM. It also gave a TGI [20] of 33.8 µM, a GI50 [21] of 19.1 µM and a TGI [21] of 47.5 µM. For the same compound, the GI50 [22] was 2.12 µM, the TGI [22] was 7.72 µM and the GI50 [23] was 13.7 µM. For the same compound, the TGI [23] was 28.5 µM, the GI50 [24] was 2.93 µM and the TGI [24] was 12.8 µM. The GI50 [25] was 14.5 µM, the TGI [25] was 30 µM and the GI50 [26] was 6.4 µM. For the same compound, the TGI [26] was 16.2 µM, the GI50 [27] was 32.8 µM and the TGI [27] was over 100 µM. The GI50 [28] was 15.3 µM, the TGI [28] was 29.4 µM and the GI50 [29] was 3.42 µM. The TGI [29] was 14.2 µM, the GI50 [30] was 2.23 µM and the TGI [30] was 23.8 µM. For the same compound, the GI50 [31] was 19.8 µM, the TGI [31] was 48.7 µM and the GI50 [32] was 16.4 µM. The TGI [32] was 37 µM, the GI50 [33] was 5.07 µM and the TGI [33] was 15.8 µM. The GI50 [34] was 13.6 µM, the TGI [34] was over 49.2 µM and the GI50 [35] was 27 µM. For the same compound, the TGI [35] was over 86.9 µM, the GI50 [36] was 12.7 µM and the TGI [36] was over 79.9 µM. For the same compound, the GI50 [37] was 10.4 µM, the TGI [37] was 25.8 µM and the GI50 [38] was 2.59 µM. The TGI [38] was 8.14 µM, the GI50 [39] was 17.8 µM and the TGI [39] was over 65.3 µM. The GI50 [40] was 31.5 µM, the TGI [40] was over 100 µM and the GI50 [41] was 13.9 µM. For the same compound, the TGI [41] was 27.4 µM, the GI50 [42] was 2.44 µM and the TGI [42] was 6.72 µM. For the same compound, the GI50 [43] was 4.96 µM, the TGI [43] was 17.1 µM and the GI50 [44] was 11.3 µM. The TGI [44] was 24.6 µM, the GI50 [45] was 3.72 µM and the TGI [45] was 14.9 µM. For the same compound, the GI50 [46] was 2.15 µM, the TGI [46] was 4.94 µM and the GI50 [47] was over 65.5 µM. It also gave a TGI [47] of over 100 µM, a GI50 [48] of 28.9 µM and a TGI [48] of over 73.8 µM. It also gave a GI50 [49] of 3.35 µM, a TGI [49] of 11.8 µM and a GI50 [50] of 9.75 µM. It also gave a TGI [50] of 24.3 µM, a GI50 [51] of 78.7 µM and a TGI [51] of over 100 µM. For the same compound, the GI50 [52] was 14.2 µM, the TGI [52] was 30.9 µM and the GI50 [53] was 1.7 µM. For the same compound, the TGI [53] was 3.37 µM, the GI50 [54] was 19.2 µM and the TGI [54] was 51.8 µM. For the same compound, the GI50 [55] was 41.2 µM, the TGI [55] was over 100 µM and the GI50 [56] was 14.5 µM. The TGI [56] was 28.3 µM, the GI50 [57] was 0.939 µM and the TGI [57] was 4.93 µM.
